Assay results from US20220177508A1, “C10-Cyclic Substituted 13-Membered Macrolides and Uses Thereof” (Zikani Therapeutics, Inc., priority 2018, published 2022).
Values after ≈ are worked out from the molar mass of the structure shown.

Tests used:
Format in all cases: cell-based
E. coli MP-4 = experiment: Broth dilution MIC determination (CLSI), E. coli MP-4; details: Escherichia coli, MP4; strain MP-4, broth dilution; read-out: MIC E. coli MP-4
A. baumannii MP-15 = experiment: Broth dilution MIC determination (CLSI), A. baumannii MP-15; details: Acinetobacter baumannii, MP15; strain MP-15, broth dilution; read-out: MIC A. baumanii MP-15
K. pneumoniae MP-546 = experiment: Broth dilution MIC determination (CLSI), K. pneumoniae MP-546; details: Klebsiella pneumoniae, MP546; strain MP-546, broth dilution
S. aureus MP-12 = experiment: Broth dilution MIC determination (CLSI), S. aureus MP-12; details: Staphylococcus aureus, MP12; strain MP-12, broth dilution
P. aeruginosa MP-3 = experiment: Broth dilution MIC determination (CLSI), P. aeruginosa MP-3; details: Pseudomonas aeruginosa, MP3; strain MP-3, broth dilution
K. pneumoniae MP-648 = experiment: Broth dilution MIC determination (CLSI), K. pneumoniae MP-648; details: Klebsiella pneumoniae, MP648; strain MP-648, broth dilution

SMILES	MIC (E. coli MP-4) [µg/mL]	MIC (A. baumannii MP-15) [µg/mL]	MIC (K. pneumoniae MP-546) [µg/mL]	MIC (S. aureus MP-12) [µg/mL]	MIC (P. aeruginosa MP-3) [µg/mL]	MIC (K. pneumoniae MP-648) [µg/mL]
CO[C@]1(C)C[C@@H](C)CN(C)[C@H](C2CN(C(=O)CC(C)(C)CN(C)CC(C)C)C2)COC(=O)C(C)(C)C(=O)[C@H](C)[C@H]1O[C@@H]1O[C@H](C)C[C@H](N(C)C)[C@H]1O [Compound 167, (3R,6R,8R,9R,10R)-9-(((2S,3R,4S,6R)-4-(dimethylamino)-3-hydroxy-6-methyltetrahydro-2H-pyran-2-yl)oxy)-3-(1-(4-(isobutyl(methyl)amino)-3,3-dimethylbutanoyl)azetidin-3-yl)-8-methoxy-4,6,8,10,12,12-hexamethyl-1-oxa-4-azacyclotridecane-11,13-dione]	< 4	> 32	4 to 32 (≈ 5.41 to 43.3 µM)	4 to 32 (≈ 5.41 to 43.3 µM)	> 32	
CO[C@]1(C)C[C@@H](C)CN(C)[C@@H]([C@@H]2CCN(C(=O)CN(C)C)C2)COC(=O)C(C)(C)C(=O)[C@H](C)[C@H]1O[C@@H]1O[C@H](C)C[C@H](N(C)C)[C@H]1O [Compound 169, (3S,6R,8R,9R,10R)-9-(((2S,3R,4S,6R)-4-(Dimethylamino)-3-hydroxy-6-methyltetrahydro-2H-pyran-2-yl)oxy)-3-((R)-1-(dimethylglycyl)pyrrolidin-3-yl)-8-methoxy-4,6,8,10,12,12-hexamethyl-1-oxa-4-azacyclotridecane-11,13-dione]	< 4	> 32	4 to 32 (≈ 6.11 to 48.9 µM)	4 to 32 (≈ 6.11 to 48.9 µM)	> 32	
CO[C@]1(C)C[C@@H](C)CN(C)[C@H](C2CC3CCC(C2)N3C(C)C)COC(=O)C(C)(C)C(=O)[C@H](C)[C@H]1O[C@@H]1O[C@H](C)C[C@H](N(C)C)[C@H]1O (stereo partly drawn) [Compound 170, (3R,6R,8R,9R,10R)-9-(((2S,3R,4S,6R)-4-(dimethylamino)-3-hydroxy-6-methyltetrahydro-2H-pyran-2-yl)oxy)-3-(8-isopropyl-8-azabicyclo[3.2.1]octan-3-yl)-8-methoxy-4,6,8,10,12,12-hexamethyl-1-oxa-4-azacyclotridecane-11,13-dione]	4 to 32 (≈ 6.14 to 49.1 µM)	> 32	4 to 32 (≈ 6.14 to 49.1 µM)	4 to 32 (≈ 6.14 to 49.1 µM)	> 32	
CO[C@]1(C)C[C@@H](C)CN(C)[C@H]([C@H]2CCCN(C)C2)COC(=O)C(C)(C)C(=O)[C@H](C)[C@H]1O[C@@H]1O[C@H](C)C[C@H](N(C)C)[C@H]1O [Compound 171, (3R,6R,8R,9R,10R)-9-(((2S,3R,4S,6R)-4-(dimethylamino)-3-hydroxy-6-methyltetrahydro-2H-pyran-2-yl)oxy)-8-methoxy-4,6,8,10,12,12-hexamethyl-3-((S)-1-methylpiperidin-3-yl)-1-oxa-4-azacyclotridecane-11,13-dione]	4 to 32 (≈ 6.69 to 53.5 µM)	> 32	4 to 32 (≈ 6.69 to 53.5 µM)	> 32	> 32	
CO[C@]1(C)C[C@@H](C)CN(C)[C@H](C2CN(Cc3cn(C)cn3)C2)COC(=O)C(C)(C)C(=O)[C@H](C)[C@H]1O[C@@H]1O[C@H](C)C[C@H](N(C)C)[C@H]1O [Compound 173, (3R,6R,8R,9R,10R)-9-(((2S,3R,4S,6R)-4-(dimethylamino)-3-hydroxy-6-methyltetrahydro-2H-pyran-2-yl)oxy)-8-methoxy-4,6,8,10,12,12-hexamethyl-3-(1-((1-methyl-1H-imidazol-4-yl)methyl)azetidin-3-yl)-1-oxa-4-azacyclotridecane-11,13-dione]	4 to 32 (≈ 6.16 to 49.2 µM)	> 32	> 32	> 32	> 32	
CO[C@]1(C)C[C@@H](C)CN(C(C)=O)[C@H](C2CCN(C(C)C)CC2)COC(=O)C(C)(C)C(=O)[C@H](C)[C@H]1O[C@@H]1O[C@H](C)C[C@H](N(C)C)[C@H]1O [Compound 174, (3R,6R,8R,9R,10R)-4-Acetyl-9-(((2S,3R,4S,6R)-4-(dimethylamino)-3-hydroxy-6-methyltetrahydro-2H-pyran-2-yl)oxy)-3-(1-isopropylpiperidin-4-yl)-8-methoxy-6,8,10,12,12-pentamethyl-1-oxa-4-azacyclotridecane-11,13-dione]	> 32	> 32	> 32	> 32	> 32	
CCN1CCC([C@H]2COC(=O)C(C)(C)C(=O)[C@H](C)[C@@H](O[C@@H]3O[C@H](C)C[C@H](N(C)C)[C@H]3O)[C@](C)(OC)C[C@@H](C)CN2C)CC1 [Compound 175, (3S,6R,8R,9R,10R)-9-(((2S,3R,4S,6R)-4-(dimethylamino)-3-hydroxy-6-methyltetrahydro-2H-pyran-2-yl)oxy)-3-(1-ethylpiperidin-4-yl)-8-methoxy-4,6,8,10,12,12-hexamethyl-1-oxa-4-azacyclotridecane-11,13-dione]	< 4	> 32	< 4	4 to 32 (≈ 6.54 to 52.3 µM)	> 32	
CO[C@]1(C)C[C@@H](C)CN(C)[C@H](C2CCN(Cc3nccn3C)CC2)COC(=O)C(C)(C)C(=O)[C@H](C)[C@H]1O[C@@H]1O[C@H](C)C[C@H](N(C)C)[C@H]1O [Compound 179, (3R,6R,8R,9R,10R)-9-(((2S,3R,4S,6R)-4-(dimethylamino)-3-hydroxy-6-methyltetrahydro-2H-pyran-2-yl)oxy)-8-methoxy-4,6,8,10,12,12-hexamethyl-3-(1-((1-methyl-1H-imidazol-2-yl)methyl)piperidin-4-yl)-1-oxa-4-azacyclotridecane-11,13-dione]	< 4	> 32	4 to 32 (≈ 5.9 to 47.2 µM)	4 to 32 (≈ 5.9 to 47.2 µM)	> 32	

More lines, now with the values ahead:

MIC (E. coli MP-4) [µg/mL]	MIC (A. baumannii MP-15) [µg/mL]	MIC (K. pneumoniae MP-546) [µg/mL]	MIC (S. aureus MP-12) [µg/mL]	MIC (P. aeruginosa MP-3) [µg/mL]	MIC (K. pneumoniae MP-648) [µg/mL]	SMILES
4 to 32 (≈ 5.64 to 45.1 µM)	> 32	> 32	> 32	> 32		CO[C@]1(C)C[C@@H](C)CN(C)[C@@H]([C@H]2CC[C@H](N(C)C(=O)CNC3CC3)CC2)COC(=O)C(C)(C)C(=O)[C@H](C)[C@H]1O[C@@H]1O[C@H](C)C[C@H](N(C)C)[C@H]1O [Compound 180, 2-(cyclopropylamino)-N-((1S,4r)-4-((3S,6R,8R,9R,10R)-9-(((2S,3R,4S,6R)-4-(dimethylamino)-3-hydroxy-6-methyltetrahydro-2H-pyran-2-yl)oxy)-8-methoxy-4,6,8,10,12,12-hexamethyl-11,13-dioxo-1-oxa-4-azacyclotridecan-3-yl)cyclohexyl)-N-methylacetamide]
< 4	> 32	< 4	> 32	> 32		CO[C@]1(C)C[C@@H](C)CN(C)[C@H]([C@@H]2CCN(C)C2)COC(=O)C(C)(C)C(=O)[C@H](C)[C@H]1O[C@@H]1O[C@H](C)C[C@H](N(C)C)[C@H]1O [Compound 182, (3R,6R,8R,9R,10R)-9-(((2S,3R,4S,6R)-4-(dimethylamino)-3-hydroxy-6-methyltetrahydro-2H-pyran-2-yl)oxy)-8-methoxy-4,6,8,10,12,12-hexamethyl-3-((R)-1-methylpyrrolidin-3-yl)-1-oxa-4-azacyclotridecane-11,13-dione]
< 4	> 32	< 4	4 to 32 (≈ 6.24 to 49.9 µM)	> 32		CO[C@]1(C)C[C@@H](C)CN(C)[C@@H](C2CN(C(=O)CN(C)C)C2)COC(=O)C(C)(C)C(=O)[C@H](C)[C@H]1O[C@@H]1O[C@H](C)C[C@H](N(C)C)[C@H]1O [Compound 184, (3S,6R,8R,9R,10R)-9-(((2S,3R,4S,6R)-4-(dimethylamino)-3-hydroxy-6-methyltetrahydro-2H-pyran-2-yl)oxy)-3-(1-(dimethylglycyl)azetidin-3-yl)-8-methoxy-4,6,8,10,12,12-hexamethyl-1-oxa-4-azacyclotridecane-11,13-dione]
> 32	> 32	> 32	> 32	> 32		CO[C@]1(C)C[C@@H](C)CN(C)[C@H](c2ccc(-c3cccnc3)cc2)COC(=O)C(C)(C)C(=O)[C@H](C)[C@@H]1O[C@@H]1O[C@@H](C)C[C@H](N(C)C)[C@H]1O [Compound 188]
4 to 32 (≈ 6.14 to 49.1 µM)	> 32		> 32	> 32	> 32	CO[C@]1(C)C[C@@H](C)CN(C)[C@@H](C2(CCN(C)CC3CC3)CC2)COC(=O)C(C)(C)C(=O)[C@H](C)[C@H]1O[C@@H]1O[C@H](C)C[C@H](N(C)C)[C@H]1O [Compound 196]
4 to 32 (≈ 6.25 to 50 µM)	> 32		> 32	> 32	> 32	CO[C@]1(C)C[C@@H](C)CN(C)[C@@H](C2(CCN(C)C(C)=O)CC2)COC(=O)C(C)(C)C(=O)[C@H](C)[C@H]1O[C@@H]1O[C@H](C)C[C@H](N(C)C)[C@H]1O [Compound 197]
> 32	> 32		> 32	> 32	> 32	CO[C@]1(C)C[C@@H](C)CN(C)[C@](C)(C2CCN(C)CC2)COC(=O)C(C)(C)C(=O)[C@H](C)[C@H]1O[C@@H]1O[C@H](C)C[C@H](N(C)C)[C@H]1O [Compound 198]
< 4	> 32	< 4	4 to 32 (≈ 6.07 to 48.6 µM)	> 32		CO[C@]1(C)C[C@@H](C)CN(C)[C@@H](C2CCN(C[C@@H](N)CO)CC2)CO[C@@H](O)C(C)(C)C(=O)[C@H](C)[C@H]1O[C@@H]1O[C@H](C)C[C@H](N(C)C)[C@H]1O [Compound 199]
> 32	> 32	> 32	> 32	> 32		CO[C@]1(C)C[C@@H](C)CN[C@H](c2ccccc2)COC(=O)[C@H](C)C(=O)[C@H](C)[C@H]1O[C@@H]1OC(C)CC(N(C)C)C1O (stereo partly drawn) [Compound 204]
> 32	> 32	> 32	> 32	> 32		CO[C@]1(C)C[C@@H](C)CN[C@@H](c2ccccc2)COC(=O)[C@H](C)C(=O)[C@H](C)[C@H]1O[C@@H]1OC(C)CC(N(C)C)C1O (stereo partly drawn) [Compound 205]
